These results are taken from patent US11129845B2, “Compositions and methods for the delivery of nucleic acids” (CASE WESTERN RESERVE UNIVERSITY, priority 2014, dated 2021).

A short description of data set [1]: Nanoparticle diameter and polydispersity by dynamic light scattering (Malvern Zetasizer). As to conditions: for Nanoparticle diameter as measured by dynamic light scattering: siRNA-lipid complexes. Format: physicochemical. As for the experimental part: (§1) The cationic lipid carriers are dissolved in ethanol at a stock concentration of 2.5 mM, while all siRNA is reconstituted in nuclease-free water at a 0.25 μg/μL (18.8 μM) concentration. Nanoparticles are formulated by mixing the carriers with siRNA for a period of 30 min in RNase-free phosphate buffer saline (PBS) at pre-specified N/P ratios (N=number of protonable amines in lipid, P=number of phosphate groups in the siRNA). In preparing the lipoplexes, proper dilutions were made such that the volume ratio of ethanol:water was kept constant at 1:20. Minimizing the amount of ethanol is important because it is effective in dissolving lipids, thus inhibiting particle formation. The diameters (as determined by dynamic light scattering) and zeta potentials of all nanoparticles were analyzed using a Malvern Zetasizer instrument at pH=7.4. siRNA encapsulation efficiency was calculated using a RiboGreen fluorescence-based assay from Invitrogen, designed specifically for detection of free RNA at […] wavelengths of 480 and 520 nm, respectively. Nanoparticles were created with all carriers in the library so that final siRNA concentrations were 1.6 μg/mL. A linear standard curve was utilized to calculate the encapsulation efficiencies from signal intensities measured by a SpectraMax microplate reader (Molecular Devices).

The nature of data set [2]: Zeta-potential of siRNA-lipid complexes (Malvern Zetasizer). The class given is physicochemical. As for the experimental part:
as §1

For a further data set, the system named is luciferase reporter. Kind of data set: Luciferase reporter silencing in HT29-Luc cells. Format: cell-based, human. As to conditions: HT29, N/P 18, 72 h post-transfection. As for the experimental part:
Gene silencing efficiency was investigated in the HT29-Luc cell line by analyzing the expression of a luciferase reporter after anti-Luc siRNA therapy. To perform this study, cancer cells were seeded in 12 well plates at a density of 20,000 cells per well. Transfections were conducted in fresh serum-free media with 100 nM of siRNA when the cells were 25% confluent. The cells continued to grow in normal growth media for an additional 48 and 72 h, at which point they were rinsed twice with PBS and lysed for protein collection. The lysis buffer was a component of a Promega Luciferase Assay kit designed for measuring luciferase expression in the cell lysate. Equally important, the lysis buffer was compatible with the BCA protein assay so that we were able to normalize the luciferase expression in our samples with total protein content. For this silencing study, all synthesized carriers were evaluated at N/P ratios of 8, 10, 12, 14, 16, 18, and 20 to determine the best transfection formulation. Relative luciferase expression was determined for each trial using a SpectraMax luminometer upon the addition of a light-inducing luciferin substrate to the collected protein.
The RNAi capabilities of each carrier were investigated by analyzing the silencing of a luciferase (Luc) reporter in HT29 cancer cells after anti-Luc siRNA therapy. To perform this study, we seeded HT29-Luc cells in 12 well plates at a density of 20,000 cells per well. When 25% confluency, the cells were incubated with fresh serum-free transfection media containing nanoparticles at a dose of 100 nM siRNA. After 4 hours, the media was replaced with fresh complete growth media, so that the cells could continue to grow for an additional 48-72 hours, at which point they were lysed for protein collection. The lysis buffer was compatible with the BCA protein assay so that we could normalize luciferase expression in our samples. Negative controls included cells that were treated with 1) particles encapsulating non-specific siRNA, 2) naked anti-Luc siRNA, or 3) plain serum-free media. Luciferase expression was determined using a Spectra Max luminometer upon the addition of a light-inducing substrate to the collected protein. A similar knockdown experiment was also conducted in non-cancerous CHO cells expressing a GFP reporter. Flow cytometry was utilized to assess the silencing efficiency of the ECO and ECL delivery systems in this cell line. Cytotoxicity of the carriers 48 hours post-transfection was also investigated in both cell lines using an MTT colorimetric assay. […] These RNAi silencing levels surpassed those obtained with a Lipofectamine RNAiMax commercial transfection agent.
On the technique in general: In a reporter assay the amount or activity of a reporter protein is the signal.

Data set [3] relates to HT29 colon carcinoma cells. Kind of data set: Cellular uptake of Alexa Fluor 488-siRNA via flow cytometry. Format: cell-based, human. As to conditions: HT29, N/P=18, 4 h, 100 nM Alexa Fluor 488-siRNA. As for the experimental part: Flow cytometry was used to investigate the cellular uptake of our delivery system in HT29 colon carcinoma cells. All carriers in the library were formulated into nanoparticles by condensing Alexa Fluor 488-labeled siRNA at the optimal N/P ratio determined by the above luciferase knockdown studies. Approximately 50,000 cancer cells were seeded in 6-well plates and allowed to grow until 30-50% confluence was reached. The cancer cells were transfected with a 100 nM siRNA dose in serum-free media. After 4 h, the transfection media were aspirated and the cells were washed twice with PBS. The cells were then trypsinized, collected, and fixed with 2% paraformaldehyde in PBS, prior to flow cytometric analysis.

Another data set concerns CHO-GFP cells. Format: cell-based, Chinese hamster. As for the experimental part:
Cytotoxicity of the carriers was investigated using an MTT colorimetric assay measuring cellular metabolic activity (Invitrogen). The transfection procedure was identical to that presented for the reporter knockdown studies above, except for the fact that 96 well plates were utilized instead, and seeded with 10,000 cells per well. After transfection, the cells were allowed to grow for an additional 48 h. At that point, they were incubated with MTT for 4 h, followed by an additional 4 hour incubation with an SDS-HCl solution to dissolve any insoluble formazan crystals formed by the reduction of MTT by NAD(P)H-dependent enzymes in the cells. The absorbance of each sample was measured at 570 nm using a SpectraMax microplate reader. Cellular viability was calculated by averaging the signal intensities over three replicates and then normalizing the results relative to the negative control data.
The RNAi capabilities of each carrier were investigated by analyzing the silencing of a luciferase (Luc) reporter in HT29 cancer cells after anti-Luc siRNA therapy. To perform this study, we seeded HT29-Luc cells in 12 well plates at a density of 20,000 cells per well. […] Luciferase expression was determined using a Spectra Max luminometer upon the addition of a light-inducing substrate to the collected protein. […]

`CCCCC/C=C\C/C=C\CCCCCCCC(=O)NC(CS)C(=O)NC(Cc1cnc[nH]1)C(=O)NCCNC(=O)CCN(CCN)CCC(=O)NCCNC(=O)C(Cc1cnc[nH]1)NC(=O)C(CS)NC(=O)CCCCCCC/C=C\C/C=C\CCCCC` (centres unmarked) [EHCLn]: the “Polydispersity of siRNA-lipid complexes” value is reported as 0.299 in data set [1] (N/P = 2); 0.197 in data set [1] (N/P = 5); 0.167 in data set [1] (N/P = 8); 0.112 in data set [1] (N/P = 10); 0.127 in data set [1] (N/P = 15). The “Nanoparticle diameter as measured by dynamic light scattering” value (shortened to “Nanoparticle diameter as measured”) in data set [1] (N/P = 2) is recorded as 403 ± 35 nm; in data set [1] (N/P = 5), 379 ± 28 nm; in data set [1] (N/P = 8) it was 227 ± 20 nm; in data set [1] (N/P = 10), 130 ± 14 nm; in data set [1] (N/P = 15), 60 ± 11 nm. In addition, the “Zeta-potential of siRNA-lipid complexes” value in data set [2] (pH = 7.4, N/P = 2) is on record as −23.73 ± 2.26 mV; in data set [2] (pH = 7.4, N/P = 5), −17.04 ± 1.32 mV; in data set [2] (pH = 7.4, N/P = 8), 0.49 ± 1.17 mV; in data set [2] (pH = 7.4, N/P = 10), 11.34 ± 1.67 mV; in data set [2] (pH = 7.4, N/P = 15), 24.92 ± 2.89 mV.
As to `CCCCCCCC/C=C\CCCCCCCC(=O)NC(CS)C(=O)NC(Cc1cnc[nH]1)C(=O)NCCNC(=O)CCN(CCN)CCC(=O)NCCNC(=O)C(Cc1cnc[nH]1)NC(=O)C(CS)NC(=O)CCCCCCC/C=C\CCCCCCCC` (centres unmarked) [EHCO], the “Polydispersity of siRNA-lipid complexes” value in data set [1] (N/P = 2) was 0.276; in data set [1] (N/P = 5), 0.195; in data set [1] (N/P = 8), 0.165; in data set [1] (N/P = 10), 0.122; in data set [1] (N/P = 15) it was 0.161. Also, the “Nanoparticle diameter as measured” value in data set [1] (N/P = 2) is 480 ± 30 nm; in data set [1] (N/P = 5), 427 ± 25 nm; in data set [1] (N/P = 8), 380 ± 18 nm; in data set [1] (N/P = 10) it was 141 ± 15 nm; in data set [1] (N/P = 15), 51 ± 10 nm. Besides, the “Zeta-potential of siRNA-lipid complexes” value in data set [2] (pH = 7.4, N/P = 2) was −23.14 ± 2.47 mV; in data set [2] (pH = 7.4, N/P = 5), −14.09 ± 1.88 mV; in data set [2] (pH = 7.4, N/P = 8), 5.54 ± 1.37 mV; in data set [2] (pH = 7.4, N/P = 10), 18.80 ± 1.02 mV; in data set [2] (pH = 7.4, N/P = 15), 22.68 ± 2.08 mV. In addition, in the data set with luciferase reporter, the “luciferase knockdown (transfection efficiency)” value is recorded as 46.4±5.8%. The “cellular uptake, mean fluorescence intensity (MFI)” value (from here on “cellular uptake”) in data set [3] came to 1957±208.
For the molecule `CCCCC/C=C\C/C=C\CCCCCCCC(=O)NC(CS)C(=O)NC(Cc1cnc[nH]1)C(=O)NCCNC(=O)CCN(CCCNCCCCNCCCN)CCC(=O)NCCNC(=O)C(Cc1cnc[nH]1)NC(=O)C(CS)NC(=O)CCCCCCC/C=C\C/C=C\CCCCC` (centres unmarked) [SHCLn], the “Polydispersity of siRNA-lipid complexes” value in data set [1] (N/P = 2) amounted to 0.246; in data set [1] (N/P = 5) it was 0.183; in data set [1] (N/P = 8) it was 0.174; in data set [1] (N/P = 10) it was 0.114; in data set [1] (N/P = 15) it was 0.163. Also, the “Nanoparticle diameter as measured” value turned out to be 559 ± 38 nm in data set [1] (N/P = 2); 223 ± 23 nm in data set [1] (N/P = 5); 119 ± 13 nm in data set [1] (N/P = 8); 132 ± 15 nm in data set [1] (N/P = 10); 75 ± 10 nm in data set [1] (N/P = 15). Further, the “Zeta-potential of siRNA-lipid complexes” value in data set [2] (pH = 7.4, N/P = 2) is −32.09 ± 1.65 mV; in data set [2] (pH = 7.4, N/P = 5), 24.02 ± 1.07 mV; in data set [2] (pH = 7.4, N/P = 8), 26.35 ± 1.40 mV; in data set [2] (pH = 7.4, N/P = 10), 25.59 ± 2.22 mV; in data set [2] (pH = 7.4, N/P = 15), 23.80 ± 2.95 mV. Also, the “relative cell viability (MTT)” value in the data set with CHO-GFP cells came out at 83.3±4.22%. In data set [3], the “cellular uptake” value was 4414±413.
For `CCCCCCCC/C=C\CCCCCCCC(=O)NC(CS)C(=O)NC(Cc1cnc[nH]1)C(=O)NCCNC(=O)CCN(CCCNCCCCNCCCN)CCC(=O)NCCNC(=O)C(Cc1cnc[nH]1)NC(=O)C(CS)NC(=O)CCCCCCC/C=C\CCCCCCCC` (centres unmarked) [SHCO], the “Polydispersity of siRNA-lipid complexes” value in data set [1] (N/P = 2) amounted to 0.238; in data set [1] (N/P = 5) it was 0.192; in data set [1] (N/P = 8), 0.189; in data set [1] (N/P = 10), 0.154; in data set [1] (N/P = 15), 0.124. Moreover, the “Nanoparticle diameter as measured” value came out at 441 ± 32 nm in data set [1] (N/P = 2); 238 ± 27 nm in data set [1] (N/P = 5); 139 ± 17 nm in data set [1] (N/P = 8); 151 ± 16 nm in data set [1] (N/P = 10); 46 ± 8 nm in data set [1] (N/P = 15). Besides, the “Zeta-potential of siRNA-lipid complexes” value in data set [2] (pH = 7.4, N/P = 2) is −32.09 ± 1.65 mV; in data set [2] (pH = 7.4, N/P = 5), −18.5 ± 2.43 mV; in data set [2] (pH = 7.4, N/P = 8), 18.32 ± 1.45 mV; in data set [2] (pH = 7.4, N/P = 10), 21.76 ± 2.31 mV; in data set [2] (pH = 7.4, N/P = 15), 23.94 ± 1.70 mV. Also, the “cellular uptake” value in data set [3] was determined as 3580±244.
